# Results published in patent publication US8815935B2, “Inhibitors of protein prenyltransferases” (The Regents of the University of California, priority 2008, dated 2014).
# Entries after “also recorded” stand apart in the source; their conditions may differ. Like-named read-outs stand apart in the source and are kept apart here.
# Experiments:
# [1] = target: T1, GGTase-I (Rattus norvegicus, UniProt P53610+Q04631); assay: In vitro GGTase-I enzyme assay (IC50, kinetics); format: biochemical; conditions: for IC50: read-out: In vitro (enzyme assay) IC50, GGTase I
# T1 construct: purchased JENA BIOSCIENCE
# Method in brief: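 Rat GGTase-I (50 nM) with 0.5 μM [3H]-GGPP and 2 μM MBP-RhoA in Tris-HCl pH 7.5, MgCl2, ZnCl2, DTT, 2.5% DMSO, 10 min at 30 °C; radiolabel incorporation by TCA filter binding and scintillation. Kinetics: 5 min reactions varying GGPP or RhoA at fixed other components.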
# [2] = test system: Panc-1; assay: Cell cycle distribution by flow cytometry, PANC-1; format: cell-based, human; conditions: 10 μM, 48 hours
# Experimental: (§1) Cell viability was determined by Cell Counting Kit-8 (CCK-8, Dojindo, Kumamoto, Japan) as described previously (31). Cell viability was calculated relative to the DMSO control. Cell cycle profile was analyzed by flow cytometry as described previously (32).
# [3] = test system: Aspc-1; assay: Aspc-1 cell growth inhibition; format: cell-based, human; conditions: Homo sapiens, ASPC1, 144 h; 6 days, CCK-8, vs DMSO; read-out: IC50, AsPc-1 (Pancreas)
# Experimental: (§2) In FIG. 9-24 in vitro IC50 values for the GGTase I activity are reported. In Tables 7-15 in cell GI50 values for the growth inhibition of a variety of cancer cell lines (e.g., Jurkat, K562, MDA-MB-231, BT474, MCF7, MiaPaCa2, Aspc-1, Panc-1, Capan-2, CFpac-1, and MCF10a) are reported.
# as §1
# [4] = test system: MiaPaCa2; assay: MiaPaCa2 cell growth inhibition; format: cell-based, human; conditions: Homo sapiens, MIA PaCa-2, 72 h; 3 days, CCK-8, vs DMSO; read-out: IC50, MiaPaCa2 (Pancreas)
# Experimental: as §2, §1
# [5] = test system: Jurkat; assay: Cell cycle distribution by flow cytometry, Jurkat; format: cell-based, human; conditions: 10 μM, 48 hours
# Experimental: as §1
# [6] = test system: MCF7; assay: MCF7 cell growth inhibition; format: cell-based, human
# Experimental: as §2, §1
# [7] = test system: MDA-MB-231; assay: Cell cycle distribution by flow cytometry, MDA-MB-231; format: cell-based, human; conditions: 10 μM, 48 hours
# Experimental: as §1
# [8] = test system: p21CIP1/WAF1 promoter; assay: p21 promoter luciferase reporter assay in NIH3T3 cells; format: cell-based; conditions: NIH3T3, 48 hours, dose dependent
# Experimental: For the p21^WAF1/CIP1 promoter luciferase assay, NIH3T3 cells were transfected with p21^WAF1/CIP1 promoter-Luc or vector plasmids (33) (both plasmids are provided by Dr. Genhong Cheng). Cells were treated with GGTI compounds. Promega luciferase assay kit was used according to the manufacturer's protocol.
# Another mechanism through which GGTI can effect cell cycle progression is to inhibit RhoA which negatively regulates expression of a Cdk inhibitor p21^CIP1/WAF1. To investigate whether the GGTI compounds described herein can induce p21^CIP1/WAF1 expression, luciferase transcriptional activation from the p21^CIP1/WAF1 promoter (33) was measured. Transient expression systems with NIH3T3 cells were used to examine the ability of P61-A6 to induce p21^CIP1/WAF1-luciferase expression. P61-A6 induced significant (4-fold) inductions of luciferase activity versus DMSO in a dose dependence manner (FIG. 37C).
# [9] = test system: Panc-1; assay: Panc-1 cell growth inhibition; format: cell-based, human; conditions: Homo sapiens, PANC-1, 72 h; 3 days, CCK-8, vs DMSO; read-out: IC50, PANC-1 (Pancreas)
# Experimental: as §2
# Panc-1 cells (Pancreatic cancer cell line) and Jurkat cells (T-cell leukemia) were treated with 12.5 μM of P5-H6 or 12.5 μM of mP5-H6a for 72 hours. The cell number was counted as described in Example 5.
# as §1
Compound,"specificity among GGTase-I, FTase and GGTase-II ([1]; FIGS. 20A-20C, varying concentrations)",Ki ([1]; Michaelis-Menten analysis) [µM],"IC50 ([1]; Tables 5, 14) [µM]","mode of GGTase-I inhibition with respect to GGPP ([1]; varying GGPP, fixed RhoA)","mode of GGTase-I inhibition with respect to the protein substrate (RhoA) ([1]; varying RhoA, fixed GGPP)","Percent G2/M, PANC-1 ([2]; DMSO 24.21) [%]","Percent G0/G1, PANC-1 ([2]; DMSO 42.08) [%]","IC50 ([1]; Tables 3, 5, 7) [µM]",IC50 [3] [µM],IC50 [4] [µM],"Percent G2/M, Jurkat ([5]; DMSO 11.80) [%]","Percent G0/G1, Jurkat ([5]; DMSO 46.92) [%]","inhibition of proliferation of MCF-7 ([6]; 72 hours, FIG. 37A)","IC50 ([6]; Homo sapiens, MCF7, 144 h, 6 days, CCK-8, vs DMSO, read-out: IC50, MCF-7 (Breast)) [µM]","Percent G2/M, MDA-MB-231 ([7]; DMSO 7.74) [%]","Percent G0/G1, MDA-MB-231 ([7]; DMSO 73.78) [%]",induction of p21CIP1/WAF1-luciferase activity versus DMSO [8] [fold],IC50 [9] [µM]
Cc1ccccc1S(=O)(=O)N1[C@@H](c2cccc(Cl)c2)C(C(=O)O)=CC[C@H]1c1ccc(Cl)cc1 [P3-E5],specifically inhibit GGTase I,0.187 ± 0.013,0.313,do not compete with GGPP; also recorded: uncompetitive inhibitors,compete with a substrate protein; also recorded: competitive inhibitors,–,–,–,–,–,–,–,–,–,–,–,–,–
Cc1ccccc1S(=O)(=O)N1C(c2ccc(Cl)cc2)C(C(=O)NC(Cc2ccccc2)C(N)=O)=CC1C(C)(C)C (stereo not drawn) [P61-A6],–,–,–,–,–,19.81,54.13,1,11.7,4.7,11.60,57.87,dose-dependent inhibition of proliferation,4.5,5.15,85.16,4,5.2
